Measurements: patent US20260327211A1, “MODULATORS OF A POTASSIUM CHANNEL AND OF TRPV1 CHANNEL AND USES THEREOF” (Bsense Bio Therapeutics Ltd., priority 2023, published 2026)
Where two headings read alike, the source gives them in different places.

Assays:
[1] = Plasma protein binding, rat; assay type: in vitro ADME; details: read-out: PPB fu (rat)
Description: Incubation: Test compounds or the positive control warfarin were introduced into 10% plasma samples (Sourced from WuXi DMPK labs or from commercial vendors) to a concentration of 2 μM. A portion of 150 μL of the compound-containing plasma sample was added to one chamber of a 96-well equilibrium HTD dialysis plate. An equal volume of dialysis buffer was added to the corresponding chamber. A plasma sample was also taken before the incubation and designated as the T0 sample, serving for recovery calculation. The plate was incubated in a humidified 5% CO2 incubator at 37° C. for 4 hours. Each incubation was set up in triplicate.
Sample extraction and preparation: Following the incubation period, samples of 50 μL were drawn from both the plasma side and the buffer side and each was mixed with an equal volume of blank plasma. All matrix-matched samples were quenched using a stop solution containing an internal standard (IS).
Sample Analysis: The samples were subsequently analyzed by LC-MS/MS. The concentrations of the test compound in plasma and buffer samples were quantified based on the peak area ratio of analyte to the internal standard, with no requirement for a standard curve.

CYP3A4 = assay: CYP inhibition / time-dependent inhibition, CYP3A4_Midazolam; assay type: in vitro ADME, human; details: for TDI related reactive metabolite: Table 11
Description: The time-dependent inactivation potency of the test compound to CYP enzymatic activities was assessed by the pre-incubation of the human liver microsomes with the test compound in the presence and absence of NADPH, followed by the incubation with the discrete marker substrates, as follows.
Pre-incubation with human liver microsomes (HLMs): The TDI inactivation potency on CYP enzymatic activities was evaluated through pre-incubation with HLMs (Corning). A liver microsome mixture at a concentration of 0.1 mg/mL, and the test compound at 8 different concentrations (0, 0.05, 0.165, 0.5, 1.65, 5.0, 16.5, or 50.0 μM) was warmed at 37° C. for 10 minutes. Concurrently, a set of known time-dependent inactivators was also prepared in duplicate for comparison. Following this, NADPH (1.0 mM) was added to one group (Group 1), and an equal volume of potassium phosphate buffer to the second group (Group 2), marking the beginning of a 30-minute pre-incubation at 37° C.
Incubation: After pre-incubation, the marker substrate, or marker substrate plus NADPH was added to the mixture, thereby initiating the incubation. The duration of the incubation was dependent on the type of CYP isoform being evaluated. For example, with the CYP3A isoform, the mixture was incubated over 3 minutes utilizing midazolam as the marker substrate (2.0 μM), verapamil as the standard inactivator (3.5 μM).
Termination of Reaction: Following the incubation, ice-cooled acetonitrile containing the internal standard (IS) was added to halt the reactions. Metabolites generated from the marker substrates were then measured via LC-MS/MS, assessed based on peak area ratios of the analyte to IS.

hKv7.4 = molecular target: T1, hKv7.4 (Homo sapiens, UniProt P56696); assay: Kv7.4 HCS, FLIPR potassium assay; assay type: cell-based
T1 construct: expressed in transfected cells; host or cells: CHO
Description: Cell culture: Chinese hamster ovary (CHO) cell-line cells were cultured in F-12 nutrient mixture (Biological Industries) supplemented with 10% fetal bovine serum with 1% penicillin-streptomycin (Biological Industries) in a humidified 5% CO2 incubator at 37° C. To express the appropriate gene either Kv7.3/5, Kv7.4 or TRPA1 5 μg plasmid was transfected using Amaxa, DT-133 program, with p-3 Kit.
Kv7.3/5 and 7.4HCS using FLIPR Potassium Assay Kit: Kv7.3/5 and 7.4 HCS using the FLIPR Potassium Assay Kit was performed similarly to the Kv7.2/3 HCS, except that the Tecan Spark plate-reader injectors were primed with Tl+(1 mM Tl2SO4) or Tl++K+(1 mM Tl2SO4; 5 mM K2SO4) for Kv7.3/5, or Tl+(1 mM Tl2SO4) or Tl++K+(1 mM Tl2SO4; 10 mM K2SO4) for Kv7.4 for channel activation and data correction.
FLIPR Potassium Assay Kit: The FLIPR Potassium Assay Kit (R8222 FLIPR Potassium Assay Explorer Kits, Molecular Devices) was used with transfected CHO cells.
According to optimization process, to achieve a uniform and consistent screening condition of molecules, the following protocol was established: 2 days following transfection cells were seeded in 384-well, black-walled, clear-bottomed, at a density of 5,000 cells per well 24 hours before the assay conductance and incubated overnight in their normal growth medium. On the experiment day the medium was replaced with HBSS, HEPES, and the tested compound/vehicle (0.2% DMSO). Dye solution (prepared according to the manufacturer) was added to the wells and plates were incubated for 1.5 hour light-protected in room temperature. The Tecan Spark plate-reader injectors were primed with Tl+(1 mM Tl2SO4) or Tl++K+(1 mM Tl2SO4; 5 mM K2SO4) for Kv7.3/5 channel activation and data correction or Tl+(1 mM Tl2SO4) or Tl++K+(1 mM Tl2SO4; 10 mM K2SO4) for Kv7.4 for channel activation and data correction. […] To calculate IC50 values, the data was fitted to sigmoidal regression using Prism GraphPad.

[2] = Metabolite identification (Met-ID), human hepatocytes; assay type: in vitro ADME
Description: Cell culture and incubation: Cryopreserved hepatocyte cells, from human and rat sources, were purchased from commercial sources or in-house production, and were cultured in Williams' Medium E supplemented with glutamine and HEPES, in a humidified 5% CO2 incubator at 37° C., to a cell density of […]. Then, solutions of test compounds at a concentration of 10 μM, or 7-Ethoxycoumarin, as a positive control, at a concentration of 30 μM, in Eagle's Minimum Essential Medium, Catalog No. 30-2003 (ATCC) supplemented with 20% fetal bovine serum, were introduced and the mixture was incubated for 120 minutes, or other specified time points.
The samples were analyzed for metabolites using an LC-MS method developed on […] and PDA systems. Comparative analyses of mass spectra and ion fragmentation between the parent compound and its metabolites were carried out, and metabolic profiling was determined using the mass spectrometric and/or PDA (UV) response. Hypothetical structures of metabolites and their metabolic pathways were proposed.

T1 sequence (P56696 whole entry): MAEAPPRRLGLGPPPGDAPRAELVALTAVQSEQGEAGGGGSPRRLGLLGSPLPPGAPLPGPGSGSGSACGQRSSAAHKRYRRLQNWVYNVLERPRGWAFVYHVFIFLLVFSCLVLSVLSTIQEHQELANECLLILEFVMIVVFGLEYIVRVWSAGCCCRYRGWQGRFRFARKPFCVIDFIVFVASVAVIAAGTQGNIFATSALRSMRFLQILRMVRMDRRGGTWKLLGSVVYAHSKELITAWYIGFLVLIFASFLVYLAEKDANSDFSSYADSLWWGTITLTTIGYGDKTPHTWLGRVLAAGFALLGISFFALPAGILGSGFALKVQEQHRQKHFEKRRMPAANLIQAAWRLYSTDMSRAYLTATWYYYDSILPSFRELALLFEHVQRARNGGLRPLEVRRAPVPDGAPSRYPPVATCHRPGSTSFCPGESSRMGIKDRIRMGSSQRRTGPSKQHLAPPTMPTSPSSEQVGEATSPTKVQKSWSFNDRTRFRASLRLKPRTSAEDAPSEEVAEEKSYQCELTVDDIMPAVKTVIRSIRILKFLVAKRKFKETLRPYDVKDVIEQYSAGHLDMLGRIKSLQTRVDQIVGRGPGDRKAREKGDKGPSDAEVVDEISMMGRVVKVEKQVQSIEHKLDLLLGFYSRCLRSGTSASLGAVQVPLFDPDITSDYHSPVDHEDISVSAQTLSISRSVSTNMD

| fraction unbound at 4 h, 2 µM [1] | TDI related reactive metabolite (CYP3A4) | EC50 (hKv7.4; read-out: Kv7.4 EC50 HCS) | Structure (SMILES) | Kv7.4 activity (hKv7.4) | Human Hepatocytes MetID (glutathione conjugation) ([2]; human hepatocytes) | further results |
| --- | --- | --- | --- | --- | --- | --- |
| 0.0004 | Yes | > 2 µM | Cc1cn(-c2ccc(F)c(CC(=O)NCC(C)(C)O)c2)c2c(Cl)cc(Cl)cc12 [Compound 421] | – | – | – |
| 0.0004 | Yes | 88 µM | O=C(Cc1cc(-n2cc(Cl)c3cc(Cl)cc(Cl)c32)ccc1F)NCCO [Compound 627] | – | – | – |
| 0.0029 | Yes | 49.3 µM | O=C(Cc1cncc(-n2cc(Cl)c3cc(Cl)cc(Cl)c32)c1)N[C@@H]1COC[C@H]1O [Compound 661] | no measurable activity at any concentration tested | – | Metabolites M1-M7 (glutathione conjugation), share of identified metabolites [2]: 2.09% |
| – | – | – | O=C(Cc1ccnc(-n2cc(Cl)c3cc(Cl)cc(Cl)c32)n1)N[C@@H]1COC[C@H]1O [Compound 820] | – | did not indicate the presence of glutathione conjugation and None | CYP-TDI (midazolam), (−)NADPH/(+)NADPH Ratio CYP3A4 (CYP3A4; role: inhibitor, substrate midazolam 2.0 μM, CYP TDI ratio): <0.9 |
| – | – | – | O=C(Cc1cc(-n2cc(C(F)(F)F)c3cc(Cl)cc(Cl)c32)ncn1)NCCO [Compound 843] | – | did not indicate the presence of glutathione conjugation | Human Hepatocytes MetID ([2]; human hepatocytes): 0.2% |

| Structure (SMILES) | fraction unbound at 4 h, 2 µM [1] | TDI related reactive metabolite (CYP3A4) | EC50 (hKv7.4; read-out: Kv7.4 EC50 HCS) | Kv7.4 activity (hKv7.4) | Human Hepatocytes MetID (glutathione conjugation) ([2]; human hepatocytes) | further results |
| --- | --- | --- | --- | --- | --- | --- |
| O=C(Cc1nccc(-n2cc(Cl)c3cc(Cl)cc(Cl)c32)n1)NC1COCC1O (centres unmarked) [Compound 760] | – | No | – | lacks any effect on hERG and Kv7.3/4/5 activity below 10 μM | did not indicate the presence of glutathione conjugation and None | CYP inhibition / TDI, all CYPs of Table 9 (CYP3A4; role: inhibitor, up to 20 micromolar): did not show significant CYP inhibition or time-dependent inhibition (TDI); EC50 (hKv7.4; Thallium ions (Tl+) fluorescence, read-out: hKv7.4 EC50): 46.2 µM |
